Holding throughout (assay): Field plot weed control study, % control
Holding throughout (assay type): in vivo
Holding throughout (conditions): adjuvant use rate 1.0% wt/wt with glyphosate baseline

For one assay, the system named is Helianthus sp. (HELSS). The method, then:
(§1) The efficacy evaluation was conducted by a field plot study with selected weeds. They are Linum sp. (AMSS), Amaranthus sp. (LIUSS), Helianthus sp. (HELSS), and Zea mays (ZEAMX). The field plot size is 400 square feet (10×40 ft), with three replications arranged in a randomized complete block design. Soil description: 15.3% sand, 53.9% silt, and 30.8% clay; Organic material content: 6.2%; pH: 7.5.
(§2) Product application was made using a backpack spray device, Blackout. Operation pressure: 40 psi. Nozzle: TT 11001; Spray volute: 8.5 gallon/acre.
(§3) Environmental condition during application: Air temperature—87 degree F.; Relative humidity—39%; Wind—NE, 5 mph; Soil temperature—71 degree F.; Cloud cover—50%.
(§4) Weeds were evaluated for percent control at 14 days and 28 days following application.
(§5) Sliding rating scale used: 0 indicating no control, up to 100 indicating complete control of weed species as compared to the untreated check.

For another assay, the system named is Linum sp. (AMSS). The method, then:
as §1, §2, §3, §4, §5

The next assay relates to Zea mays (ZEAMX). On the procedure: as §1, §2, §3, §4, §5
The subject of another assay is Amaranthus sp. (LIUSS). The method, then:
as §1, §2, §3, §4, §5

We go through four compounds from patent US20180220646A1, “AMS-Free Adjuvants for Water Conditioning and Agricultural Formulations” (RHODIA OPERATIONS, priority 2017, published 2018).

Take `C[N+](C)(C)C.C[N+](C)(C)C.O=S(=O)([O-])[O-]` [Tetramethylamine Sulfate]: in the assay on Helianthus sp. (HELSS), the “% Control at 14 days HELSS” value is 86.7% and the “% Control at 28 days HELSS” value came out at 85%. In the assay with Linum sp. (AMSS), the “% Control at 14 days AMSS” value came to 51.7% and the “% Control at 28 days AMSS” value amounted to 58.3%. Besides, in the assay with Zea mays (ZEAMX), the “% Control at 14 days ZEAMX” value was 56.7% and the “% Control at 28 days ZEAMX” value was determined as 85%. For the same compound, in the assay on Amaranthus sp. (LIUSS), the “% Control at 14 days LIUSS” value is 46.7% and the “% Control at 28 days LIUSS” value is listed as 46.7%.
In the case of Choline Citrate, in the assay with Helianthus sp. (HELSS), the “% Control at 14 days HELSS” value was found to be 89.3% and the “% Control at 28 days HELSS” value was 95%. Also, in the assay with Linum sp. (AMSS), the “% Control at 14 days AMSS” value was 61.7% and the “% Control at 28 days AMSS” value worked out at 63.3%. Further, in the assay with Zea mays (ZEAMX), the “% Control at 14 days ZEAMX” value was found to be 68.3% and the “% Control at 28 days ZEAMX” value was 90%. In the assay on Amaranthus sp. (LIUSS), the “% Control at 14 days LIUSS” value was determined as 71.7% and the “% Control at 28 days LIUSS” value worked out at 86.7%.
Choline etidronic acid: in the assay on Helianthus sp. (HELSS), the “% Control at 14 days HELSS” value turned out to be 91.7% and the “% Control at 28 days HELSS” value worked out at 84%. In the assay on Linum sp. (AMSS), the “% Control at 14 days AMSS” value came out at 70% and the “% Control at 28 days AMSS” value is reported as 70%. Further, in the assay with Zea mays (ZEAMX), the “% Control at 14 days ZEAMX” value was determined as 65% and the “% Control at 28 days ZEAMX” value is on record as 66.7%. In addition, in the assay with Amaranthus sp. (LIUSS), the “% Control at 14 days LIUSS” value is listed as 76% and the “% Control at 28 days LIUSS” value was determined as 80%.
Regarding Choline salt of Sulfuric Acid, in the assay on Helianthus sp. (HELSS), the “% Control at 14 days HELSS” value was 88.3% and the “% Control at 28 days HELSS” value is 95%. Further, in the assay on Linum sp. (AMSS), the “% Control at 14 days AMSS” value came out at 70% and the “% Control at 28 days AMSS” value is 70%. For the same compound, in the assay on Zea mays (ZEAMX), the “% Control at 14 days ZEAMX” value is 55% and the “% Control at 28 days ZEAMX” value stood at 83.3%. For the same compound, in the assay with Amaranthus sp. (LIUSS), the “% Control at 14 days LIUSS” value came out at 40% and the “% Control at 28 days LIUSS” value worked out at 43.3%.
